Results on nine molecules are retold here after US11708381B2, “Inhibitors of androgen receptor signaling” (XAVIER UNIVERSITY OF LOUISIANA, priority 2016, dated 2023).

Holding throughout (type): cell-based
The test system of one test is LNCaP95 cells. Briefly: Antiproliferative activity, resazurin assay, LNCaP95 cells. To be noted: enzalutamide-resistant LNCaP95 cells, 72 h, cell proliferation, read-out: IC50 (μM) LCaP95. Here is the method: (§1) LNCaP95 and 22RV1 are prostate cancer cell lines that express high level of AR-V7 and other AR-Vs, and are enzalutamide-resistant. LNCaP95 cells were maintained in RPMI1640 medium with charcoal-stripped serum (CSS). 22Rv1 cells were maintained in RPMI1640 medium with 10% FBS. Cells were seeded in 96-well plates (5×10^3 cells/well) containing 50 μL growth medium for 24 hrs. After medium removal, 100 μL fresh medium containing individual compound at different concentrations was added to each well and incubated at 37° C. for 72 h. Then 20 μL of resazurin was added for 2 h before recording fluorescence at 560 nm (excitation) and 590 nm (emission) using a Victor microtiter plate fluorometer (Perkin-Elmer, USA). The IC50 was defined as the compound concentration required for inhibiting cell proliferation by 50%, in comparison with cells treated with the maximum amount of DMSO (0.25%) and considered as 100% viability.
For orientation: The colour change of resazurin is a common sign of viable cells or microbes.

A further test relates to 22RV1 cells. Briefly: Antiproliferative activity, resazurin assay, 22RV1 cells. To be noted: for Inhibitory rate at 10^−6 M in 22RV1 cells: 72 h incubation; for IC50: enzalutamide-resistant 22RV1 cells, 72 h, cell proliferation. The method, then: as §1
The test system of test [1] is AR. Put plainly: Downregulation of AR in LNCaP95 cells. The conditions noted are these: LNCaP95, enzalutamide-resistant prostate cancer cell line (FIG. 10).
The test system of test [2] is AR-V7. Put plainly: Downregulation of AR-V7 in 22RV1 cells. The conditions noted are these: 22RV1, enzalutamide-resistant prostate cancer cell line (FIG. 11).
Test [3] deals with AR. Put plainly: Downregulation of AR in 22RV1 cells. To be noted: 22RV1, enzalutamide-resistant prostate cancer cell line (FIG. 11).
For test [4], the system named is AR-V7. Briefly: Downregulation of AR-V7 in LNCaP95 cells. The conditions noted are these: LNCaP95, enzalutamide-resistant prostate cancer cell line (FIG. 10).

Where two headings read alike, the source gives them in different places.

With `O=C(Nc1ccc(C(F)(F)F)cc1F)c1cc(F)c(F)cc1O`, the IC50 in the test with LNCaP95 cells (LNCaP-95) stood at 0.199 µM; in the test with 22RV1 cells (Homo sapiens), 0.382 µM. Also, the “Inhibitory rate at 10^−6 M in 22RV1 cells” value (“Inhibitory rate at 10^−6 M” below) in the test with 22RV1 cells turned out to be 52.7%.
As to `O=C(Nc1ccc(C(F)(F)F)c(C(F)(F)F)c1)c1cc(F)ccc1O` [ARi 4], the “downregulation of AR” value in the test with AR [1] and in the test with AR [3] was “dose-dependent downregulation” each time. Also, the “downregulation of AR-V7” value with AR-V7 [2] and with AR-V7 [4] was “dose-dependent downregulation” in each case.
For `N#Cc1cc(NC(=O)c2cc(F)ccc2O)ccc1C(F)(F)F`, the results for the 50% inhibitory concentration (IC50) with LNCaP95 cells (LNCaP-95) and in the test on 22RV1 cells (Homo sapiens) were 0.161 µM and 0.195 µM, respectively. In addition, the “Inhibitory rate at 10^−6 M” value in the test on 22RV1 cells amounted to 21.8%.
`O=C(Nc1ccc(C(F)(F)F)c(C(F)(F)F)c1)c1cc(F)ccc1O` [drawing 30]: the IC50 with LNCaP95 cells (LNCaP-95) was found to be 0.13 µM. For the same molecule, the “Inhibitory rate at 10^−6 M” value in the test with 22RV1 cells was determined as 15.7%.
On to Niclosamide [reference compound], for which the IC50 with LNCaP95 cells is 0.372 µM; in the test with 22RV1 cells it was 0.284 µM. In the test on 22RV1 cells, the “Inhibitory rate at 10^−6 M” value worked out at 51.3%. Besides, the “downregulation of AR” value in the test on AR [3] is recorded as “dose-dependent downregulation”.
As to `O=C(Nc1ccc(C(F)(F)F)cc1F)c1cc(F)ccc1O`, the IC50 in the test with LNCaP95 cells (LNCaP-95) is 0.152 µM; in the test on 22RV1 cells (Homo sapiens), 0.121 µM. Also, the “Inhibitory rate at 10^−6 M” value in the test on 22RV1 cells is recorded as 12.4%.
The corresponding values for `O=C(Nc1ccc([N+](=O)[O-])cc1F)c1cc(F)ccc1O` are 0.206 µM, 0.244 µM and 43.9%.
For `O=C(Nc1ccc(C(F)(F)F)cc1Cl)c1cc(F)ccc1O`, in that order: 0.148 µM, 0.135 µM and 14.5%.
The corresponding values for `N#Cc1ccc(NC(=O)c2cc(F)ccc2O)c(F)c1` are 0.397 µM, 0.414 µM and 55.3%.

One may read the IC50 as the concentration that gives 50% inhibition.
